From the NIST ThermoML archive (doi:10.1021/je700260f)

Conditions: Liquid, Vibrating tube method

FC(C(F)(F)F)C(F)(F)F [1,1,1,2,3,3,3-heptafluoropropane]
Conditions	mass density [kg/m3]
293.15 K, 27338 kPa	1533.2
293.15 K, 27374 kPa	1533.1
293.15 K, 27410 kPa	1533.2
293.15 K, 27435 kPa	1533.3
293.15 K, 27481 kPa	1533.5
293.15 K, 27522 kPa	1533.7
293.15 K, 27553 kPa	1533.7
293.15 K, 27589 kPa	1533.9
293.15 K, 27619 kPa	1533.9
293.15 K, 27655 kPa	1534
293.15 K, 27692 kPa	1534.2
293.15 K, 27728 kPa	1534.3
293.15 K, 27759 kPa	1534.5
293.15 K, 27800 kPa	1534.5
293.15 K, 27841 kPa	1534.6
293.15 K, 27871 kPa	1534.8
293.15 K, 27912 kPa	1534.9
293.15 K, 27953 kPa	1534.9
293.15 K, 27984 kPa	1535.1
293.15 K, 28026 kPa	1535.1
293.15 K, 28067 kPa	1535.5
293.15 K, 28097 kPa	1535.4
293.15 K, 28144 kPa	1535.6
293.15 K, 28185 kPa	1535.7
293.15 K, 28216 kPa	1535.9
293.15 K, 28258 kPa	1536
293.15 K, 28300 kPa	1536
293.15 K, 28327 kPa	1536.1
293.15 K, 28369 kPa	1536.4
293.15 K, 28411 kPa	1536.5
293.15 K, 28442 kPa	1536.7
293.15 K, 28484 kPa	1536.7
293.15 K, 28520 kPa	1536.8
293.15 K, 28556 kPa	1536.8
293.15 K, 28588 kPa	1537.1
293.15 K, 28619 kPa	1537.1
293.15 K, 28667 kPa	1537.3
293.15 K, 28709 kPa	1537.3
293.15 K, 28735 kPa	1537.5
293.15 K, 28783 kPa	1537.7
293.15 K, 28823 kPa	1537.8
293.15 K, 28855 kPa	1537.9
293.15 K, 28908 kPa	1538.1
293.15 K, 28956 kPa	1538.2
293.15 K, 28983 kPa	1538.2
293.15 K, 29030 kPa	1538.3
293.15 K, 29072 kPa	1538.5
293.15 K, 29104 kPa	1538.5
293.15 K, 29147 kPa	1538.8
293.15 K, 29179 kPa	1538.8
293.15 K, 29229 kPa	1539.1
293.15 K, 29256 kPa	1539.1
293.15 K, 29289 kPa	1539.1
293.15 K, 29337 kPa	1539.3
293.15 K, 29385 kPa	1539.4
293.15 K, 29417 kPa	1539.6
293.15 K, 29460 kPa	1539.7
293.15 K, 29497 kPa	1539.7
293.15 K, 29528 kPa	1540
293.15 K, 29566 kPa	1540
293.15 K, 29603 kPa	1540.2
293.15 K, 29637 kPa	1540.3
293.15 K, 29675 kPa	1540.4
293.15 K, 29718 kPa	1540.6
293.15 K, 29751 kPa	1540.4
293.15 K, 29782 kPa	1540.6
293.15 K, 29810 kPa	1540.8
293.15 K, 29843 kPa	1540.9
293.15 K, 29870 kPa	1540.9
293.15 K, 29903 kPa	1541.1
293.15 K, 29936 kPa	1541.1
293.15 K, 29969 kPa	1541.3
293.15 K, 29997 kPa	1541.2
293.15 K, 30026 kPa	1541.4
293.15 K, 30054 kPa	1541.5
293.15 K, 30083 kPa	1541.6
293.15 K, 30120 kPa	1541.8
293.15 K, 30153 kPa	1541.8
293.15 K, 30181 kPa	1541.9
293.15 K, 30215 kPa	1542
293.15 K, 30248 kPa	1542.1
293.15 K, 30287 kPa	1542.3
293.15 K, 30316 kPa	1542.4
293.15 K, 30350 kPa	1542.5
293.15 K, 30389 kPa	1542.5
293.15 K, 30423 kPa	1542.7
293.15 K, 30456 kPa	1542.8
293.15 K, 30493 kPa	1542.8
293.15 K, 30522 kPa	1542.9
293.15 K, 30560 kPa	1543.2
293.15 K, 30598 kPa	1543.1
293.15 K, 30626 kPa	1543.2
293.15 K, 30669 kPa	1543.4
293.15 K, 30713 kPa	1543.5
293.15 K, 30742 kPa	1543.5
293.15 K, 30776 kPa	1543.6
293.15 K, 30815 kPa	1543.8
293.15 K, 30853 kPa	1543.9
293.15 K, 30887 kPa	1543.9
293.15 K, 30920 kPa	1544.1
293.15 K, 30958 kPa	1544.3
293.15 K, 30982 kPa	1544.4
293.15 K, 31020 kPa	1544.4
293.15 K, 31063 kPa	1544.6
293.15 K, 31092 kPa	1544.7
293.15 K, 31136 kPa	1544.7
293.15 K, 31164 kPa	1544.7
293.15 K, 31189 kPa	1544.9
293.15 K, 31232 kPa	1545.1
293.15 K, 31270 kPa	1545.2
293.15 K, 31299 kPa	1545.2
293.15 K, 31327 kPa	1545.4
293.15 K, 31356 kPa	1545.3
293.15 K, 31400 kPa	1545.5
293.15 K, 31438 kPa	1545.7
293.15 K, 31468 kPa	1545.7
293.15 K, 31506 kPa	1545.8
293.15 K, 31537 kPa	1546
293.15 K, 31563 kPa	1546.1
293.15 K, 31593 kPa	1546.1
293.15 K, 31636 kPa	1546.3
293.15 K, 31669 kPa	1546.4
293.15 K, 31698 kPa	1546.4
293.15 K, 31742 kPa	1546.6
293.15 K, 31786 kPa	1546.7
293.15 K, 31815 kPa	1546.8
293.15 K, 31854 kPa	1546.8
293.15 K, 31882 kPa	1547
293.15 K, 31919 kPa	1547.1
293.15 K, 31954 kPa	1547.1
293.15 K, 31986 kPa	1547.3
293.15 K, 32022 kPa	1547.3
293.15 K, 32055 kPa	1547.6
293.15 K, 32096 kPa	1547.7
293.15 K, 32136 kPa	1547.8
293.15 K, 32163 kPa	1547.7
293.15 K, 32205 kPa	1548
293.15 K, 32245 kPa	1548.1
293.15 K, 32272 kPa	1548.1
293.15 K, 32309 kPa	1548.2
293.15 K, 32338 kPa	1548.3
293.15 K, 32381 kPa	1548.3
293.15 K, 32418 kPa	1548.5
293.15 K, 32447 kPa	1548.7
293.15 K, 32494 kPa	1548.7
293.15 K, 32531 kPa	1548.9
293.15 K, 32565 kPa	1548.9
293.15 K, 32598 kPa	1549
293.15 K, 32635 kPa	1549.1
293.15 K, 32668 kPa	1549.3
293.15 K, 32711 kPa	1549.4
293.15 K, 33629 kPa	1552.1
293.15 K, 33659 kPa	1552.1
293.15 K, 33704 kPa	1552.3
293.15 K, 33734 kPa	1552.3
293.15 K, 33769 kPa	1552.5
293.15 K, 33809 kPa	1552.5
293.15 K, 33844 kPa	1552.5
293.15 K, 33879 kPa	1552.6
293.15 K, 33925 kPa	1552.9
293.15 K, 33976 kPa	1553.1
293.15 K, 34008 kPa	1553
293.15 K, 34053 kPa	1553.2
293.15 K, 34100 kPa	1553.3
293.15 K, 34131 kPa	1553.5
293.15 K, 34173 kPa	1553.5
293.15 K, 34220 kPa	1553.9
293.15 K, 34257 kPa	1553.9
293.15 K, 34293 kPa	1553.8
293.15 K, 34336 kPa	1554
293.15 K, 34374 kPa	1554.1
293.15 K, 34415 kPa	1554.3
293.15 K, 34442 kPa	1554.3
293.15 K, 34464 kPa	1554.4
293.15 K, 34489 kPa	1554.4
293.15 K, 34511 kPa	1554.7
293.15 K, 34523 kPa	1554.6
293.15 K, 34537 kPa	1554.6
293.15 K, 34546 kPa	1554.6
303.14 K, 1230 kPa	1372.6
303.14 K, 7245 kPa	1416.2
303.14 K, 7273 kPa	1416.3
303.14 K, 7298 kPa	1416.5
303.14 K, 7327 kPa	1416.7
303.14 K, 7356 kPa	1416.8
303.14 K, 7384 kPa	1417.1
303.14 K, 7413 kPa	1417.1
303.14 K, 10852 kPa	1437.1
303.14 K, 10890 kPa	1437.1
303.14 K, 10918 kPa	1437.3
303.14 K, 10989 kPa	1437.6
303.14 K, 12092 kPa	1443.4
303.14 K, 12132 kPa	1443.6
303.14 K, 12163 kPa	1443.8
303.14 K, 12207 kPa	1443.9
303.14 K, 12242 kPa	1444.1
303.14 K, 12284 kPa	1444.2
303.14 K, 12330 kPa	1444.6
303.14 K, 12373 kPa	1444.7
303.14 K, 14583 kPa	1455.6
303.14 K, 14620 kPa	1455.8
303.14 K, 14653 kPa	1455.9
303.14 K, 14687 kPa	1456
303.14 K, 14726 kPa	1456.4
303.14 K, 14755 kPa	1456.5
